Experiments:
[1] = tested on: Chikungunya virus; assay: Antiviral activity against Chikungunya virus Indian ocean strain 899 infected in African green monkey Vero A cells assessed as reduction in viral-induced cytopathic effect after 6 to 7 days by MTS/PMS assay; type: functional, organism-based; settings: Indian ocean strain 899, Vero
[2] = Selectivity index, ratio of CC50 for African green monkey Vero A cells to EC50 for Chikungunya virus Indian ocean strain 899 infected in African green monkey Vero A cells; type: toxicity; settings: read-out: Ratio CC50/EC50

SMILES | EC50 [1] | selectivity ratio [2]
CCCCC/C=C\C=C\C(=O)O[C@@H]1[C@@H](C)[C@@]2(O)[C@@H](C=C(CO)C[C@]3(O)C(=O)C(C)=C[C@@H]23)[C@@H]2C(C)(C)[C@]12OC(=O)C(C)C | < 800 nM | > 12
CCCCC/C=C/C=C\C(=O)O[C@@H]1[C@@H](C)[C@@]2(O)[C@@H](C(=O)C(CO)=C[C@]3(O)C(=O)C(C)=C[C@@H]23)[C@@H]2C(C)(C)[C@]12OC(=O)C(C)C | 4500 nM | 6.3
CCCCC/C=C/C=C\C(=O)O[C@@H]1[C@@H](C)[C@@]2(O)[C@@H](C=C(CO)C[C@]3(O)C(=O)C(C)=C[C@@H]23)[C@@H]2C(C)(C)[C@]12OC(=O)C(C)C | < 800 nM | > 12
CCCCC/C=C\C=C\C(=O)O[C@@H]1[C@@H](C)[C@@]2(O)[C@@H](C=C(CO)C[C@]3(O)C(=O)C(C)=C[C@@H]23)[C@@H]2C(C)(C)[C@]12OC(=O)C(C)CC (stereo partly drawn) | < 800 nM | > 12
